Activity calls are given as the source filed them. The rule behind the calls is not given here.
How the values were obtained:
[1] = molecular target: Serine/threonine-protein kinase mTOR (Homo sapiens) (UniProt P42345); assay: Inhibition of human mTOR/FRAP1 using at 1 uM in presence of 32P-ATP by Hotspot assay relative to control
[2] = molecular target: Serine/threonine-protein kinase ULK1 (Homo sapiens) (UniProt O75385); assay: Inhibition of human ULK1 using myelin basic protein as substrate at 1 uM in presence of 32P-ATP by Hotspot assay relative to control; values are per cent of control
Serine/threonine-protein kinase ULK1 (Homo sapiens), sequence (O75385 whole entry): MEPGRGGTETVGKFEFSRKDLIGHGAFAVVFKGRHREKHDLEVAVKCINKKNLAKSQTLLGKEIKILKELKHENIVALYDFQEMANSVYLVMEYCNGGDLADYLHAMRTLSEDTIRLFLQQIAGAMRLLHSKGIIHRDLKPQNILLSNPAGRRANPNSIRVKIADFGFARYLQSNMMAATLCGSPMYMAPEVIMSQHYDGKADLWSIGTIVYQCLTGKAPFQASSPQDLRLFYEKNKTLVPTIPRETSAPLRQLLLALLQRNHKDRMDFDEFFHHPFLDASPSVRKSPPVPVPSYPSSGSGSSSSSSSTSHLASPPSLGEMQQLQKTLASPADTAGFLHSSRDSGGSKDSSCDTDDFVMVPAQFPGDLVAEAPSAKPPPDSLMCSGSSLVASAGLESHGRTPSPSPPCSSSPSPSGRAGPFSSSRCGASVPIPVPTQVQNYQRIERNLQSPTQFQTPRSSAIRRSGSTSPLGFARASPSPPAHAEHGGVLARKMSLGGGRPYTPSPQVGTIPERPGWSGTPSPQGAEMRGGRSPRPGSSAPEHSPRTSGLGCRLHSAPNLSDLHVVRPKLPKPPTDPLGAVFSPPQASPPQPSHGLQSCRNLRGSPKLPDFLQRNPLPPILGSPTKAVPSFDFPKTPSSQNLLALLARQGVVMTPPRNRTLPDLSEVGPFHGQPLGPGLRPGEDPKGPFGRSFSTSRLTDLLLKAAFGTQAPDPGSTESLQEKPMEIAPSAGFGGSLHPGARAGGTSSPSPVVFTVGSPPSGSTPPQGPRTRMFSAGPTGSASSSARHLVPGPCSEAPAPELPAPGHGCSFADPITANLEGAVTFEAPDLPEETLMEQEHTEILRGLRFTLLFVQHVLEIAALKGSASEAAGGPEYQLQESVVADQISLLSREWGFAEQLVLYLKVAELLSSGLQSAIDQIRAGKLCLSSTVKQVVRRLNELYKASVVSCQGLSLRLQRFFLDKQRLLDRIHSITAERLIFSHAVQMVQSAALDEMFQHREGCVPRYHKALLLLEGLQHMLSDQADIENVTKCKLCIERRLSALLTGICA

[3] = molecular target: Serine/threonine-protein kinase ULK3 (Homo sapiens) (UniProt Q6PHR2); assay: Inhibition of human ULK3 using myelin basic protein as substrate at 1 uM in presence of 32P-ATP by Hotspot assay relative to control; values are per cent of control
Serine/threonine-protein kinase ULK3 (Homo sapiens), sequence (Q6PHR2 whole entry): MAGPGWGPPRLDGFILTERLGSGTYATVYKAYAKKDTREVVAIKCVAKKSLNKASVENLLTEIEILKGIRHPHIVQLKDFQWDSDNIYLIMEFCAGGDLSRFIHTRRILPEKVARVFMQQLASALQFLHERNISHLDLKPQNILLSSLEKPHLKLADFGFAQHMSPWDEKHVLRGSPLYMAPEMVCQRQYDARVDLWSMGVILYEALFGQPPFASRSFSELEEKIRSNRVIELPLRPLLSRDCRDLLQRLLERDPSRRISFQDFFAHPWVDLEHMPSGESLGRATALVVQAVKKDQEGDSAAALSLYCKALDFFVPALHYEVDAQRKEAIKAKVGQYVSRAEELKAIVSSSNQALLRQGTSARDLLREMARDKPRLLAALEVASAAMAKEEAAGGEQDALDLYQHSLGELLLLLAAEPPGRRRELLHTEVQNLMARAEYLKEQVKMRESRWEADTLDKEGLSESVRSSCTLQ

[4] = molecular target: Myosin-IIIb (Homo sapiens) (UniProt Q8WXR4); assay: Inhibition of human MYO3b using myelin basic protein as substrate at 1 uM in presence of 32P-ATP by Hotspot assay relative to control; values are per cent of control
[5] = molecular target: MAP kinase-interacting serine/threonine-protein kinase 1 (Homo sapiens) (UniProt Q9BUB5); assay: Inhibition of human MNK1 using myelin basic protein as substrate at 1 uM in presence of 32P-ATP by Hotspot assay relative to control; values are per cent of control
MAP kinase-interacting serine/threonine-protein kinase 1 (Homo sapiens), sequence (Q9BUB5 whole entry, looked up): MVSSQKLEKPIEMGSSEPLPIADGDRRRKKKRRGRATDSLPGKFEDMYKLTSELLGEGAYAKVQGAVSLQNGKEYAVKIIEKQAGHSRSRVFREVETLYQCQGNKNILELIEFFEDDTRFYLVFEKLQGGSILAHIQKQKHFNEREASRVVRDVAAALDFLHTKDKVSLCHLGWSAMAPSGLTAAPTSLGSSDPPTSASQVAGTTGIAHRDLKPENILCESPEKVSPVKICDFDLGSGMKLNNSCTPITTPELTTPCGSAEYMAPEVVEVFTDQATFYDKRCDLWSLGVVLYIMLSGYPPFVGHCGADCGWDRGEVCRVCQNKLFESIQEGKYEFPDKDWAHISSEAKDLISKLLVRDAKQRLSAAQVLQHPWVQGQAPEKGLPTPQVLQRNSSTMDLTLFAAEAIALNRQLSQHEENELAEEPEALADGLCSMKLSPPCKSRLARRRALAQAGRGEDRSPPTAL

3T3SA [6] = assay: Induction of apoptosis in mouse 3T3SA cells transfected with RIP3 shRNA assessed as increase in caspase3/7 proteolytic activity incubated for 4 hrs; format: toxicity, cell-based
3T3SA [7] = assay: Induction of apoptosis in mouse 3T3SA cells assessed as cell death by measuring percent of PI positive cells incubated for 8 hrs in presence of zVAD by PI staining based flow cytometric analysis (reference value: 11.4%); format: toxicity
MEF [8] = assay: Induction of apoptosis in cFLIPL-/- MEF cells transfected with cFLIPL expressing retrovirus assessed as increase in caspase 8 proteolytic activity incubated for 4 hrs; format: toxicity, cell-based; conditions: mouse
3T3SA [9] = assay: Induction of apoptosis in mouse 3T3SA cells incubated for 18 hrs in presence of BHA by Cell Titer-Glo luminescent cell viability assay; format: toxicity, cell-based
3T3SA [10] = assay: Induction of apoptosis in mouse 3T3SA cells transfected with Caspase8 siRNA assessed as cleaved caspase 8 accumulation incubated for 2.5 hrs by immunoblot analysis; format: toxicity, cell-based
3T3SA [11] = assay: Induction of apoptosis in mouse 3T3SA cells transfected with RIP1 siRNA assessed as accumulation of cleaved caspase 8 incubated for 0.5 to 1.5 hrs by immunoblot analysis; format: toxicity, cell-based; conditions: time 0.5-1.5 hrs
3T3SA [12] = assay: Induction of apoptosis in vICA expression plasmid transfected mouse 3T3SA cells co-transfected with shRNA-resistant RIP3 K51A mutant incubated for 12 hrs by Cell Titer-Glo luminescent cell viability assay; format: toxicity, cell-based
3T3SA [13] = assay: Induction of apoptosis in RIP3 shRNA transfected mouse 3T3SA cells co-transfected with shRNA resistant RIP3 assessed as accumulation of wildtype RIP3 in pellet incubated for 3 hrs in presence of zVAD by immunoblot analysis; format: toxicity, cell-based
3T3SA [14] = assay: Induction of apoptosis in vICA expression plasmid transfected mouse 3T3SA cells co-transfected with shRNA-resistant RIP3 D161G mutant incubated for 12 hrs by Cell Titer-Glo luminescent cell viability assay; format: toxicity, cell-based
[15] = molecular target: Nuclear factor NF-kappa-B complex (Homo sapiens) (UniProt Q00653+P19838+Q04206); assay: Activation of NFkappaB (unknown origin) transfected in mouse 3T3SA cells incubated for 2.5 hrs; format: cell-based; conditions: filed as activator
Nuclear factor NF-kappa-B complex (Homo sapiens), sequence (P19838 whole entry, looked up): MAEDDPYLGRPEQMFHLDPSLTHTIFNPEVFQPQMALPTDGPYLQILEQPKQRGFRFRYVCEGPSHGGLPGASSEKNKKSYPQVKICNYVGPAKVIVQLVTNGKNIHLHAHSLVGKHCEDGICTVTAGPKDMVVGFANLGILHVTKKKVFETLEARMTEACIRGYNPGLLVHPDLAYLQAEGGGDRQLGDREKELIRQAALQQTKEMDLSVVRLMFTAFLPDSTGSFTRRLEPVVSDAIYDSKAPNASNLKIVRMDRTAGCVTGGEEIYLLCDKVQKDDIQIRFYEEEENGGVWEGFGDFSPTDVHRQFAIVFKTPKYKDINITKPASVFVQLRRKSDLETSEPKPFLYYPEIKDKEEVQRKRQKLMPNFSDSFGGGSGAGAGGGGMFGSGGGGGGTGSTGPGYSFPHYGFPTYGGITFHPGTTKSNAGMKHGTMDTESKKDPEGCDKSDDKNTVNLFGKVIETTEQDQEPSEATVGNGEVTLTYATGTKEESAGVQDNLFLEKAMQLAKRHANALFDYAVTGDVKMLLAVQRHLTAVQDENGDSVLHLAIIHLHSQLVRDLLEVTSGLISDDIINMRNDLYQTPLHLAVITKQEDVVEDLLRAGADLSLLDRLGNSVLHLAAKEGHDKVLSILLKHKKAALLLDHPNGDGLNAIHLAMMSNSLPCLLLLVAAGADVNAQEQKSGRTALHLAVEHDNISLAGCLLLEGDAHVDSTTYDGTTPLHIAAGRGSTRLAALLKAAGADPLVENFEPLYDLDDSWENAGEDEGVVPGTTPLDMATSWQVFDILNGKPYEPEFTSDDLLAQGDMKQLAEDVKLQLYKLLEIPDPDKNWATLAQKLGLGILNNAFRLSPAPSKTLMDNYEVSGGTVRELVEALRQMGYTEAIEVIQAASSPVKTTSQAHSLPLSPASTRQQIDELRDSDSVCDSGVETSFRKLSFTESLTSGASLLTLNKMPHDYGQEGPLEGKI
Nuclear factor NF-kappa-B complex (Homo sapiens), sequence (Q00653 whole entry, looked up): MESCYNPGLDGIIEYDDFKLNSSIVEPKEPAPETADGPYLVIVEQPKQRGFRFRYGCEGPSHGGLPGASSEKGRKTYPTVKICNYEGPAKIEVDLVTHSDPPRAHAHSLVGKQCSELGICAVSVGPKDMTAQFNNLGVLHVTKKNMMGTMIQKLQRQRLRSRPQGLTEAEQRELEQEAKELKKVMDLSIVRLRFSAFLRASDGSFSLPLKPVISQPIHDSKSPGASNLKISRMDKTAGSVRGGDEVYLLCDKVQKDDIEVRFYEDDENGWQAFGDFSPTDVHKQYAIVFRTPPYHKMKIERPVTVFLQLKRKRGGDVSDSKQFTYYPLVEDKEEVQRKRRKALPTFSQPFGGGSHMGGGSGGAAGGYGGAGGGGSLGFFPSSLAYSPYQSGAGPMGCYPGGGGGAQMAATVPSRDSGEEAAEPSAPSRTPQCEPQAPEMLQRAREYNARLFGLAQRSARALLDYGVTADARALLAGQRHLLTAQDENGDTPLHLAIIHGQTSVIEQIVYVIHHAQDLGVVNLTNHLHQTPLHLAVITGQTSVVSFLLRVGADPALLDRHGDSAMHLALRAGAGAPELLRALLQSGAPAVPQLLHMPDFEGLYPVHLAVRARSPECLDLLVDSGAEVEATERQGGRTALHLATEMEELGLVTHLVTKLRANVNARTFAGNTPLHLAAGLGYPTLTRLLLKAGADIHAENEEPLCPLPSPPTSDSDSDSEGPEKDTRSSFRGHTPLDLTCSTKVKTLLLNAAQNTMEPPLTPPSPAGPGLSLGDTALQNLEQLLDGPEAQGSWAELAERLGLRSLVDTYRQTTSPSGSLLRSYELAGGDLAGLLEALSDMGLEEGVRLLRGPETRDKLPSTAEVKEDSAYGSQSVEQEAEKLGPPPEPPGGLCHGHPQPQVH
Nuclear factor NF-kappa-B complex (Homo sapiens), sequence (Q04206 whole entry, looked up): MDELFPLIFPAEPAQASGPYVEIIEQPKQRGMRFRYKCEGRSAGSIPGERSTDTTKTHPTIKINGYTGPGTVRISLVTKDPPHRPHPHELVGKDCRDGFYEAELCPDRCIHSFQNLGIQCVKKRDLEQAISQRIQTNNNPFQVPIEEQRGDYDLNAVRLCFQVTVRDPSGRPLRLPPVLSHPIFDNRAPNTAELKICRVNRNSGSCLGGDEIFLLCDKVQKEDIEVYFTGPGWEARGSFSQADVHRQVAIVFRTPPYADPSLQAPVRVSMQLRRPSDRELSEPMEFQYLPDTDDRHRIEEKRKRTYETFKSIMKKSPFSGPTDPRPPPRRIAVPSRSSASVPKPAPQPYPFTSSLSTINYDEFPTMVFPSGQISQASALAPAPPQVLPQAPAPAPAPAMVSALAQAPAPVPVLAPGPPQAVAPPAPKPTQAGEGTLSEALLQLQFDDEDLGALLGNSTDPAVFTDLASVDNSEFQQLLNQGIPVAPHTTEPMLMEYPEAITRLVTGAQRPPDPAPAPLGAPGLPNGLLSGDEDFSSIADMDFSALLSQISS

L929 = assay: Induction of apoptosis in mouse L929 cells transfected with RIP3 shRNA at 10 uM incubated for 18 hrs by Cell Titer-Glo luminescent cell viability assay; format: toxicity, cell-based; conditions: l929, 18 h
SVEC4-10 [16] = assay: Induction of apoptosis in mouse SVEC4-10 cells transfected with RIP3 shRNA at 10 uM incubated for 18 hrs by Cell Titer-Glo luminescent cell viability assay; format: toxicity, cell-based; conditions: svec4-10, 18 h
MEF [17] = assay: Inhibition of necroptosis in MEF cells expressing RIP1 K45A/K45A mutant incubated for 18 hrs by Cell Titer-Glo luminescent cell viability assay; format: functional, cell-based; conditions: Mus musculus
MEF [18] = assay: Induction of apoptosis in MEF cells expressing wildtype RIP3 incubated for 18 hrs by Cell Titer-Glo luminescent cell viability assay; format: toxicity, cell-based; conditions: mouse
3T3SA [19] = assay: Induction of apoptosis in RIP3shRNA transfected mouse 3T3SA cells co-transfected with shRNA-resistant RIP3 mutRHIM pre-tranfected for 16 hrs followed by compound addition and measured after 18 hrs in presence of zVAD by Cell Titer-Glo luminescent cell viability assay; format: toxicity, cell-based
3T3SA [20] = assay: Induction of apoptosis in mouse 3T3SA cells transfected with RIP1 siRNA assessed as accumulation of cleaved caspase 3 incubated for 0.5 to 1.5 hrs by immunoblot analysis; format: toxicity, cell-based; conditions: time 0.5-1.5 hrs
3T3SA [21] = assay: Induction of apoptosis in mouse 3T3SA cells incubated for 18 hrs in presence of zYVAD by Cell Titer-Glo luminescent cell viability assay; format: toxicity, cell-based
MEF [22] = assay: Induction of apoptosis in TNF-/- MEF cells incubated for 18 hrs by Cell Titer-Glo luminescent cell viability assay; format: toxicity, cell-based; conditions: mouse
3T3SA [23] = assay: Induction of apoptosis in mouse 3T3SA cells assessed as accumulation of cleaved caspase-3 by measuring percentage of cleaved caspase-3 positive cells measured after 2.5 hrs by immunoblot analysis (reference value: 4%); format: toxicity, cell-based
3T3SA [24] = assay: Induction of apoptosis in vICA expression plasmid transfected mouse 3T3SA cells co-transfected with shRNA-resistant empty vector incubated for 12 hrs by Cell Titer-Glo luminescent cell viability assay; format: toxicity, cell-based
SVEC4-10 [25] = assay: Inhibition of DAI-induced necroptosis in wildtype MCMV infected mouse SVEC4-10 cells assessed as increase in cell viability at 10 uM incubated for 18 hrs by Cell Titer-Glo luminescent cell viability assay; format: functional, cell-based
MEF [26] = assay: Induction of apoptosis in Casp8-/- MEF cells incubated for 18 hrs by Cell Titer-Glo luminescent cell viability assay; format: toxicity, cell-based; conditions: mouse
MEF [27] = assay: Induction of apoptosis in RIP-/- MEF cells incubated for 18 hrs by Cell Titer-Glo luminescent cell viability assay; format: toxicity, cell-based; conditions: mouse
3T3SA [28] = assay: Induction of apoptosis in mouse 3T3SA cells assessed as cell death by measuring percent of PI positive cells incubated for 3 hrs by PI staining based flow cytometric analysis (reference value: 10.7%); format: toxicity
3T3SA [29] = assay: Induction of apoptosis in mouse 3T3SA cells assessed as accumulation of cleaved caspase-3 measured after 1.5 to 2.5 hrs by immunoblot analysis; format: toxicity, cell-based; conditions: time 1.5-2.5 hrs
3T3SA [30] = assay: Induction of apoptosis in vICA expression plasmid transfected mouse 3T3SA cells co-transfected with shRNA-resistant RIP3 incubated for 12 hrs by Cell Titer-Glo luminescent cell viability assay; format: toxicity, cell-based
3T3SA [31] = assay: Induction of apoptosis in RIP3shRNA transfected mouse 3T3SA cells co-transfected with shRNA-resistant RIP3 D161G mutant pre-tranfected for 16 hrs followed by compound addition and measured after 18 hrs in presence of zVAD by Cell Titer-Glo luminescent cell viability assay; format: toxicity, cell-based

Cc1cc(-c2cnc(N)c3c(-c4ccc5scnc5c4)csc23)n(C)n1
inhibition [1]: 60.8%

CNC(=O)c1ccc2c(c1)ncn2-c1ccc(CC(=O)OC(C)(C)C)cc1
residual activity [2]: 104%
residual activity [3]: 95.4%
residual activity [4]: 92.4%
residual activity [5]: 99.7%

CC(C)S(=O)(=O)c1ccc2nccc(Nc3ccc4scnc4c3)c2c1
Activity (3T3SA [6]): Non-Toxic
Activity (3T3SA [7]): 11%
Activity (MEF [8]): Toxic
Activity (3T3SA [9]): Toxic
Activity (3T3SA [10]): Non-Toxic
Activity (3T3SA [11]): Non-Toxic
Activity (3T3SA [12]): Non-Toxic
Activity (3T3SA [13]): Toxic
Activity (3T3SA [14]): Non-Toxic
Activity [15]: Active
Activity (L929): Non-Toxic
Activity (SVEC4-10 [16]): Non-Toxic
inhibition (MEF [17]): Active
Activity (MEF [18]): Toxic
Activity (3T3SA [19]): Non-Toxic
Activity (3T3SA [20]): Non-Toxic
Activity (3T3SA [21]): Toxic
Activity (MEF [22]): Toxic
Activity (3T3SA [23]): 29%
Activity (3T3SA [24]): Non-Toxic
inhibition (SVEC4-10 [25]): inactive
Activity (MEF [26]): Non-Toxic
Activity (MEF [27]): Non-Toxic
Activity (3T3SA [28]): 24%
Activity (3T3SA [29]): Toxic
Activity (3T3SA [30]): Non-Toxic
Activity (3T3SA [31]): Non-Toxic

Reference: ChEMBL document CHEMBL5649166, “RIP3 induces apoptosis independent of pronecrotic kinase activity” (Mol Cell, 2014)
